In patent US20130252890A1, “6,7-DIHYDRO-5H-BENZO[7]ANNULENE DERIVATIVES, PROCESS FOR PREPARATION THEREOF, PHARMACEUTICAL PREPARATIONS COMPRISING THEM, AND THE USE THEREOF FOR PRODUCTION OF MEDICAMENTS” (BAYER INTELLECTUAL PROPERTY GMBH, priority 2010, published 2013):
Entries after “also recorded” stand apart in the source; their conditions may differ.

Legend:
[1] = system: peripheral cholesterol level; test: Hepatic oestrogenicity in the ovariectomized adult rat (plasma cholesterol); assay type: in vivo; conditions: ovariectomized adult rats, s.c. daily for 6 days; cholesterol day 0 vs day 8
Description: Substances with oestrogenic action influence the synthesis of various plasma proteins, of coagulation factors and fibrinolytic factors in the liver. […] In the present investigations, lowering of the peripheral cholesterol level is used as a surrogate parameter for analysis of the hepatic oestrogenicity of the claimed pharmacological compounds. Adult ovariectomized rats were, after a pause of 6-10 days, treated daily for 6 days with the substances by subcutaneous application. The plasma cholesterol levels were determined and compared before and after the respective treatment.

mammary gland = test: Action on the mammary gland in the juvenile rat; assay type: in vivo; conditions: juvenile ovariectomized rats, 6 days
Method: The formation of secretory units in the mamma is dependent in particular on gestagens and oestrogens. […] To investigate the stimulating action of test compounds, animals are ovariectomized at the age of 21 days and after a treatment-free interval of 6 days treated either with a combination of the test compound and an oestrogen (for example 70 μg/kg E1) or a combination of the test compound and a gestagen (for example promegestone 0.3 mg/kg) in each case for a period of 6 days. To investigate the antagonistic potential of a test compound, the test compound is given for a period of 6 days together with an oestrogen (see above) and a gestagen (see above). Finally one of the abdominal-inguinal mammary glands is prepared and submitted to so-called whole-mount staining. The number of secretory units on an area of approx. 1.0 mm^2 serves as the end point (moreover, this can also vary according to requirements).

oestrogen receptor (ER) = target: T1, oestrogen receptor (ER) (Homo sapiens, UniProt P03372); test: Anti-oestrogenic action in MVLN cells (inhibition of estradiol-induced luciferase); assay type: cell-based; conditions: inhibition of estradiol-induced luciferase signal, value of Ex. 44 is a mean value, read-out: Antioestrogenic action in vitro: MVLN transactivation antagonism IC50
T1 construct: These MVLN cells express, along with the functional oestrogen receptor (ER), a reporter construct; endogenous in cells; host or cells: MVLN cells (MCF7 derivative carrying a luciferase reporter construct)
T1 sequence (P03372 1-595): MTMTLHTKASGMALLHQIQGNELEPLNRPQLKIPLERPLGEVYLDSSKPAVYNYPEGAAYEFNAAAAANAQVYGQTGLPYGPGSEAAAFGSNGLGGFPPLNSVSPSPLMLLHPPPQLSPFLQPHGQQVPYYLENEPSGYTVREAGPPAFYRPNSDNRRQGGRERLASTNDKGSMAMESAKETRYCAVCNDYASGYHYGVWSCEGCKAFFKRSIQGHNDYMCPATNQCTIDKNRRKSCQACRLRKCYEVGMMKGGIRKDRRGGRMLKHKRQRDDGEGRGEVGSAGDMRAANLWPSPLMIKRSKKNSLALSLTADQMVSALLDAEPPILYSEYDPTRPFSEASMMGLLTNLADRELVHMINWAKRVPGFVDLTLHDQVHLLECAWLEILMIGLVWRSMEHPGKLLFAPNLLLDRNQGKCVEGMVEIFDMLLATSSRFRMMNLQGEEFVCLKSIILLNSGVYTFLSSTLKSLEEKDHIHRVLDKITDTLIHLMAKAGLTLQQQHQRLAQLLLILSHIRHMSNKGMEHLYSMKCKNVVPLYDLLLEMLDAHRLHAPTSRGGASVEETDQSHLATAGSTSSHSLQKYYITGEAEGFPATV
Outline: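 Inhibition of estradiol-driven luciferase expression was measured with compounds co-applied alongside oestrogen. Reporter system: MCF7-derived MVLN cells expressing endogenous functional ER and an ER-responsive luciferase construct.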

uterus [2] = test: Oestrogenic action - uterus growth test in the infantile rat; assay type: in vivo; conditions: sc, 72 h, s.c. 3 days, maximum at dose 0.1 mg/kg, relative to E2 0.3 μg/animal, read-out: maximum uterotropic action (% estradiol action) in the dose range from 0.03 to 3 mg/kg
Method: Both the uterus and the vagina show a weight increase that is dependent on oestrogenic efficacy, in infantile animals when they are treated with a substance with oestrogenic action. In the uterus, under oestrogenic action there is also proliferation and increase in height of the luminal epithelium.
Immature, intact rats (n=5-6 animals/group; body weight 40-50 g) receive the substance s.c. for 3 days (d1-d3). On day 4 (d4) the animals are killed with CO2. The uteri are removed and weighed. For histological assessment, a piece of uterus, preferably a uterine horn, is fixed in formaldehyde and embedded in paraffin. The stimulation of the organ weights (relative to mg/100 g body weight) and the height of the epithelium are shown as percentage stimulation in comparison with the reference compound 17β-estradiol (E2). (Substitution dose of E2 0.3 μg/animal).

uterus [3] = test: Anti-uterus growth test in the adult rat; conditions: sc, 72 h; ovariectomized adult rat, s.c. 3 days with 1.5 μg/kg/day 17β-estradiol; inhibition of uterus growth; value of 44 is a mean of two measurements; read-out: anti-oestrogenic activity in vivo in % at a dose of 0.3 mg/kg (rat)
Description: The uterus of oestrogen-substituted rats can be used as a test model for detecting a direct action of substances with anti-oestrogenic properties. The parameter of oestrogenic action is estradiol-induced uterus growth in rats, which is inhibited by simultaneous administration of a substance with anti-oestrogenic action. The experimental animals (n=5-6 animals/group) were ovariectomized before the start of the test, to rule out the influence of endogenous oestrogens. After a phase of 6 to 10 days, the test substances are administered s.c. on 3 consecutive days (d1-d3) in combination with a substitution dose of 1.5 μg/kg/day 17β-estradiol. 17β-estradiol alone serves as positive control, and the excipients serve as negative control. On day 4 (d4) the animals are killed, and the uteri and vaginae are removed and weighed. The organ weights are converted to mg/100 g body weight, then the mean value and the standard deviation are calculated for each dosage. The inhibition of uterus growth induced by 17β-estradiol is shown as percentage inhibition.

- hepatic oestrogenicity: lowering of the peripheral cholesterol level [1]: only observed at high dosage
- IC50 (oestrogen receptor (ER)): 5.6 nM
SMILES: CN(CCCCCCC1=C(c2cc(F)cc(F)c2)CCCc2cc(O)ccc21)CCCCS(=O)(=O)CCCC(F)(F)F [Example 44, 8-(3,5-Difluorophenyl)-9-[6-(methyl{4-[(4,4,4-trifluorobutyl)sulphonyl]butyl}amino)hexyl]-6,7-dihydro-5H-benzo[7]annulen-3-ol]
- induction of mammary gland differentiation (agonistic potential) (mammary gland; test compound alone with gestagen R5020 or alone with oestrogen E1): no induction of mammary gland differentiation significantly different from the group given excipients; also recorded: did not show any agonistic, inducing potential
- formation of mammary secretory units induced by E1 and R5020 (mammary gland; test compound with oestrogen E1 and gestagen promegestone (R5020)): dose-dependent inhibition; also recorded: dose-dependent reduction of this effect
- Emax at 0.1 mg/kg (uterus [2]): 6%
- inhibition in vivo at 0.3 mg/kg (uterus [3]): 37%
